Some results are limits rather than exact numbers.

The test has as its target T1, Chk1 (Homo sapiens, UniProt O14757).
T1 construct: purchased Upstate Biotechnology
T1 sequence (O14757 1-476): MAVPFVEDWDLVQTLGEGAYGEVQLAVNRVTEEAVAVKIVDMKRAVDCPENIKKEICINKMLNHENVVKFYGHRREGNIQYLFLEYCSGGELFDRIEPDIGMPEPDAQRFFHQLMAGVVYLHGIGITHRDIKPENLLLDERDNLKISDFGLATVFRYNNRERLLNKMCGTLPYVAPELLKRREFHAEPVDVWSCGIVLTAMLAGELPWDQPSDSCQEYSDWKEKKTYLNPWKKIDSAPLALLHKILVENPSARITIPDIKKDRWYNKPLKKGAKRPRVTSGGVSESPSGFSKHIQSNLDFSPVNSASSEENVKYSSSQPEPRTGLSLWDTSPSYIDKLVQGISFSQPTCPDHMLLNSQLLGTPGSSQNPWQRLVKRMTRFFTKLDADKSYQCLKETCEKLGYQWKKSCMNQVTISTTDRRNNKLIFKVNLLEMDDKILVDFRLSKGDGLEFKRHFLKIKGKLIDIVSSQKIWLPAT
Kind of test: Chk1 kinase assay: incorporation of γ-33P ATP into immobilized myelin basic protein. The format is biochemical. Particulars: Table 11; Chk1 only; read-out: Chk1 IC50. The essentials: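 Chk1 (10 nM) or Chk2 (20 nM) phosphorylated plate-immobilized myelin basic protein for 1 h at room temperature in Hepes pH 7.6 buffer with MgCl2, DTT, 1% DMSO, γ-33P ATP plus 10 μM (Chk1) or 30 μM (Chk2) unlabeled ATP. Bound radioactivity counted by scintillation; IC50 determined, Ki derivable from IC50.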
Usually IC50 stands for the point on the concentration scale where inhibition reaches its midpoint. Take `Nc1ncc(-c2cccc(C(=O)NCc3ccccc3)c2)nc1C(=O)c1ccc(-c2ccccc2)cc1` [Example 579, 3-[5-amino-6-(biphenyl-4-ylcarbonyl)pyrazin-2-yl]-N-(phenylmethyl)benzamide]: the IC50 is at least 10000 nM. As for `Nc1ncc(-c2cccc(CO)c2)nc1-c1nc(-c2cccnc2)n[nH]1` [Example 580, {3-[5-amino-6-(3-pyridin-3-yl-1H-1,2,4-triazol-5-yl)pyrazin-2-yl]phenyl}methanol], the figure is 50 to 1000 nM; as for `Nc1ncc(-c2cccc(CO)c2)nc1-c1nc(-c2ccc(Cl)cc2)n[nH]1` [Example 581, (3-{5-amino-6-[3-(4-chlorophenyl)-1H-1,2,4-triazol-5-yl]pyrazin-2-yl}phenyl)methanol], at least 10000 nM.

In the case of `CC(C)(C)c1nnc(-c2nc(-c3cccc(CN[C@H]4CCc5ccccc54)c3)cnc2N)[nH]1` [Example 582, 5-(3-{[(1S)-2,3-dihydro-1H-inden-1-ylamino]methyl}phenyl)-3-[5-(1,1-dimethylethyl)-4H-1,2,4-triazol-3-yl]pyrazin-2-amine], the IC50 fell in the range of 50 to 1000 nM. As to `Nc1ncc(-c2cccc(CO)c2)nc1-c1nc(-c2cccs2)n[nH]1` [Example 583, (3-{5-amino-6-[3-(2-thienyl)-1H-1,2,4-triazol-5-yl]pyrazin-2-yl}phenyl)methanol], the IC50 is 50 to 1000 nM.

As to `COc1cccc(-c2n[nH]c(-c3nc(-c4cccc(CN[C@H]5CCc6ccccc65)c4)cnc3N)n2)c1` [Example 584, 5-(3-{[(1S)-2,3-dihydro-1H-inden-1-ylamino]methyl}phenyl)-3-{3-[3-(methyloxy)phenyl]-1H-1,2,4-triazol-5-yl}pyrazin-2-amine], the half-maximal inhibitory concentration (IC50) lay in the range of 50 to 1000 nM. For `CN(C)CCCNC(=O)c1nc(-c2cccc(CN[C@H]3CCc4ccccc43)c2)cnc1N` [Example 585, 3-amino-6-(3-{[(1S)-2,3-dihydro-1H-inden-1-ylamino]methyl}phenyl)-N-[3-(dimethylamino)propyl]pyrazine-2-carboxamide] the value was 1000 to 10000 nM; for `Nc1ncc(-c2cccc(CN[C@H]3CCc4ccccc43)c2)nc1C(=O)NCCCn1ccnc1` [Example 586, 3-amino-6-(3-{[(1S)-2,3-dihydro-1H-inden-1-ylamino]methyl}phenyl)-N-[3-(1H-imidazol-1-yl)propyl]pyrazine-2-carboxamide], 50 to 1000 nM.

Turning to `Nc1ncc(-c2cccc(C(=O)NCc3ccccc3)c2)nc1C(=O)c1ccc(Cl)c(F)c1` [Example 587, 3-{5-amino-6-[(4-chloro-3-fluorophenyl)carbonyl]pyrazin-2-yl}-N-(phenylmethyl)benzamide], the IC50 is at least 10000 nM.

In the case of `COc1ccc(C(=O)c2nc(-c3cccc(C(=O)NCc4ccccc4)c3)cnc2N)c(OC)c1` [Example 588, 3-(5-amino-6-{[2,4-bis(methyloxy)phenyl]carbonyl}pyrazin-2-yl)-N-(phenylmethyl)benzamide], the IC50 is at least 10000 nM. For the compound `CN(C)c1ccc(C(=O)c2nc(-c3cccc(C(=O)NCc4ccccc4)c3)cnc2N)cc1` [Example 589, 3-(5-amino-6-{[4-(dimethylamino)phenyl]carbonyl}pyrazin-2-yl)-N-(phenylmethyl)benzamide], the IC50 was at least 10000 nM. As for `COC(=O)[C@@H]1CCCN1C(=O)c1nc(-c2cccc(C(=O)NCc3ccccc3)c2)cnc1N` [Example 590, methyl 1-{[3-amino-6-(3-{[(phenylmethyl)amino]carbonyl}phenyl)pyrazin-2-yl]carbonyl}-L-prolinate], the figure is at least 10000 nM; as for `COC(=O)C1CCCN(C(=O)c2nc(-c3cccc(C(=O)NCc4ccccc4)c3)cnc2N)C1` (stereo not shown) [Example 591, methyl 1-{[3-amino-6-(3-{[(phenylmethyl)amino]carbonyl}phenyl)pyrazin-2-yl]carbonyl}piperidine-3-carboxylate], at least 10000 nM; as for `CC(C)(C)OC(=O)N1CCN(C(=O)c2nc(-c3cccc(C(=O)NCc4ccccc4)c3)cnc2N)CC1` [Example 592, 1,1-dimethylethyl 4-{[3-amino-6-(3-{[(phenylmethyl)amino]carbonyl}phenyl)pyrazin-2-yl]carbonyl}piperazine-1-carboxylate], at least 10000 nM. On to `Nc1ncc(-c2cccc(C(=O)NCc3ccccc3)c2)nc1C(=O)N1CCNCC1` [Example 593, 3-[5-amino-6-(piperazin-1-ylcarbonyl)pyrazin-2-yl]-N-(phenylmethyl)benzamide], for which the IC50 is at least 10000 nM.

As to `Nc1ncc(-c2cccc(C(=O)NCc3ccccc3)c2)nc1C(=O)N[C@@H](CCC(=O)O)C(=O)O` [Example 594, N-{[3-amino-6-(3-{[(phenylmethyl)amino]carbonyl}phenyl)pyrazin-2-yl]carbonyl}glutamic acid], the IC50 is 1000 to 10000 nM. As for `COCc1nnc(-c2nc(-c3cccc(CN[C@H]4CCc5ccccc54)c3)cnc2N)[nH]1` [Example 595, 5-(3-{[(1S)-2,3-dihydro-1H-inden-1-ylamino]methyl}phenyl)-3-{5-[(methyloxy)methyl]-4H-1,2,4-triazol-3-yl}pyrazin-2-amine], the half-maximal inhibitory concentration (IC50) lay within 1000 to 10000 nM. As for `Nc1ncc(-c2cccc(CN[C@H]3CCc4ccccc43)c2)nc1-c1nc(-c2cccnc2)n[nH]1` [Example 596, 5-(3-{[(1S)-2,3-dihydro-1H-inden-1-ylamino]methyl}phenyl)-3-(3-pyridin-3-yl-1H-1,2,4-triazol-5-yl)pyrazin-2-amine], the figure is under 50 nM; as for `CNCCCNC(=O)c1nc(-c2cccc(CN[C@H]3CCc4ccccc43)c2)cnc1N` [Example 597, 3-amino-6-(3-{[(1S)-2,3-dihydro-1H-inden-1-ylamino]methyl}phenyl)-N-[3-(methylamino)propyl]pyrazine-2-carboxamide], under 50 nM. For `Nc1ncc(-c2cccc(CN[C@H]3CCc4ccccc43)c2)nc1C(=O)NCCCN1CCCC1` [Example 598, 3-amino-6-(3-{[(1S)-2,3-dihydro-1H-inden-1-ylamino]methyl}phenyl)-N-(3-pyrrolidin-1-ylpropyl)pyrazine-2-carboxamide] the value was 1000 to 10000 nM; for `COc1ccc(N/N=C(\C)c2nc(-c3cccc(C(=O)NCc4ccccc4)c3)cnc2N)cc1` [Example 599, 3-(5-amino-6-{(1E)-N-[4-(methyloxy)phenyl]ethanehydrazonoyl}pyrazin-2-yl)-N-(phenylmethyl)benzamide], 1000 to 10000 nM; for `C/C(=N\Nc1ccc(C(C)C)cc1)c1nc(-c2cccc(C(=O)NCc3ccccc3)c2)cnc1N` [Example 600, 3-(5-amino-6-{(1E)-N-[4-(1-methylethyl)phenyl]ethanehydrazonoyl}pyrazin-2-yl)-N-(phenylmethyl)benzamide], 1000 to 10000 nM. `C/C(=N\Nc1nc2ccccc2s1)c1nc(-c2cccc(C(=O)NCc3ccccc3)c2)cnc1N` [Example 601, 3-{5-amino-6-[(1E)-N-1,3-benzothiazol-2-ylethanehydrazonoyl]pyrazin-2-yl}-N-(phenylmethyl)benzamide]: the IC50 is at least 10000 nM.

For the compound `C/C(=N\Nc1ccc(C)cc1)c1nc(-c2cccc(C(=O)NCc3ccccc3)c2)cnc1N` [Example 602, 3-{5-amino-6-[(1E)-N-(4-methylphenyl)ethanehydrazonoyl]pyrazin-2-yl}-N-(phenylmethyl)benzamide], the IC50 is at least 10000 nM. As for `C/C(=N\Nc1ccc(Cl)cc1)c1nc(-c2cccc(C(=O)NCc3ccccc3)c2)cnc1N` [Example 603, 3-{5-amino-6-[(1E)-N-(4-chlorophenyl)ethanehydrazonoyl]pyrazin-2-yl}-N-(phenylmethyl)benzamide], the figure is at least 10000 nM; as for `C/C(=N\N(C)c1ccccc1)c1nc(-c2cccc(C(=O)NCc3ccccc3)c2)cnc1N` [Example 604, 3-{5-amino-6-[(1E)-N-methyl-N-phenylethanehydrazonoyl]pyrazin-2-yl}-N-(phenylmethyl)benzamide], 1000 to 10000 nM. As for `C/C(=N\NCCO)c1nc(-c2cccc(C(=O)NCc3ccccc3)c2)cnc1N` [Example 605, 3-{5-amino-6-[(1E)-N-(2-hydroxyethyl)ethanehydrazonoyl]pyrazin-2-yl}-N-(phenylmethyl)benzamide], the figure is 50 to 1000 nM. As for `Nc1ncc(-c2cccc(CO)c2)nc1-c1nc(-c2ccncc2)n[nH]1` [Example 606, {3-[5-amino-6-(3-pyridin-4-yl-1H-1,2,4-triazol-5-yl)pyrazin-2-yl]phenyl}methanol], the IC50 was under 50 nM. As to `Nc1ncc(-c2cccc(CO)c2)nc1-c1nc(C2CCNCC2)n[nH]1` [Example 607, {3-[5-amino-6-(3-piperidin-4-yl-1H-1,2,4-triazol-5-yl)pyrazin-2-yl]phenyl}methanol], the IC50 was 1000 to 10000 nM. On to `Nc1nccc(-c2nc(-c3cccc(C(=O)NCc4ccccc4)c3)cnc2N)n1` [Example 608, 3-[5-amino-6-(2-aminopyrimidin-4-yl)pyrazin-2-yl]-N-(phenylmethyl)benzamide], for which the IC50 was in the range of 1000 to 10000 nM.

As for `CN(C)c1nccc(-c2nc(-c3cccc(C(=O)NCc4ccccc4)c3)cnc2N)n1` [Example 609, 3-{5-amino-6-[2-(dimethylamino)pyrimidin-4-yl]pyrazin-2-yl}-N-(phenylmethyl)benzamide], the IC50 is at least 10000 nM.

The values above are taken from patent US7704995B2 (Exelixis, Inc., priority 2003, dated 2010).
